Results on 22 compounds are retold here after patent EP2970215B1, “PYRROLIDINE DERIVATIVES, PHARMACEUTICAL COMPOSITIONS CONTAINING THEM, AND THEIR USE IN THERAPY” (AbbVie Deutschland GmbH & Co. KG, priority 2013, dated 2014).

The target in this assay is T1, human GlyT1c transporter (Homo sapiens, UniProt P48067).
T1 construct: expressed in transfected cells; host or cells: CHO cells (recombinant; line hGlyT1c_5_CHO is named for the uptake assay)
T1 sequence (P48067 1-706): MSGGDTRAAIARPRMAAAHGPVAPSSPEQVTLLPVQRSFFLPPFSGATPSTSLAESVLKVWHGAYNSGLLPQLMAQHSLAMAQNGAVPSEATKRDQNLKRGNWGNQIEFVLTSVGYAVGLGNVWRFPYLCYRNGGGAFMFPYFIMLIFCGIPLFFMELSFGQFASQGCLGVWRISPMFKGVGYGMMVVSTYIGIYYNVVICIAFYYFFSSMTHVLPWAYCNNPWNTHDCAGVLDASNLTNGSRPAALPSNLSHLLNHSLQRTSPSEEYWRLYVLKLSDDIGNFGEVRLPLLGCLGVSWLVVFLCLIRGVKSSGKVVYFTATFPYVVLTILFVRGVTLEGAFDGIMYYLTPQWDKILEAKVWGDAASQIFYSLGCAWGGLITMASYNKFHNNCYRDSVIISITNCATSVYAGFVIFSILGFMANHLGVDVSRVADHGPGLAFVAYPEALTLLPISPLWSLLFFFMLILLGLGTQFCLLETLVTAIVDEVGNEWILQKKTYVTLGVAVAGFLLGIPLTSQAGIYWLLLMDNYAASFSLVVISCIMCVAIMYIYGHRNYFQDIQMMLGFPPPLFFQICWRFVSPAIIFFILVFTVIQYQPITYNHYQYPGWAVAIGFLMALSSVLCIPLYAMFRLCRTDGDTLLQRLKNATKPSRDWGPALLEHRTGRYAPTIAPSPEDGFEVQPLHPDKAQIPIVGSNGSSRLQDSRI
The assay is described as follows: Radioligand binding assay using recombinant CHO cell membranes expressing human GlyT1. The following applies: radioligand binding to human GlyT1c transporter-expressing membranes. An excerpt:
2. Radioligand binding assays using recombinant CHO cell membranes expressing human GlyT1: […]

One may read the Ki as the equilibrium dissociation constant of an inhibitor or competing ligand from its target. `Cn1cnc(S(=O)(=O)N2C[C@@H](Nc3cccc(OC(F)(F)F)c3)[C@H](C3CCCCC3)C2)c1` (relative stereo) [Example 425, Trans-4-cyclohexyl-1-[(1-methyl-1H-imidazol-4-yl)sulfonyl]-N-[3-(trifluoromethoxy)phenyl]pyrrolidin-3-amine]: the Ki is at most 10 nM. Under `Cn1cnc(S(=O)(=O)N2C[C@@H](COc3ccc(C(F)(F)F)cc3Cl)[C@H](c3ccc(F)cc3)C2)c1` (relative stereo) [Example 294, 4-{[trans-3-{[2-chloro-4-(trifluoromethyl)phenoxy]methyl}-4-(4-fluorophenyl)pyrrolidin-1-yl]sulfonyl}-1-methyl-1H-imidazole] stands at most 10 nM; under `Cn1cnc(S(=O)(=O)N2C[C@H](Nc3cccc(OCC(F)(F)F)c3)[C@@H](c3ccc(F)cc3)C2)c1` [Example 744, (3R,4S)-4-(4-fluorophenyl)-1-[(1-methyl-1H-imidazol-4-yl)sulfonyl]-N-[3-(2,2,2-trifluoroethoxy)phenyl]pyrrolidin-3-amine], at most 10 nM. `Cn1cnc(S(=O)(=O)N2C[C@@H](Nc3cccc(C(F)(F)F)c3F)[C@H](c3ccccc3)C2)c1` (relative stereo) [Example 222, trans-N-[2-fluoro-3-(trifluoromethyl)phenyl]-1-[(1-methyl-1H-imidazol-4-yl)sulfonyl]-4-phenylpyrrolidin-3-amine]: the inhibition constant (Ki) was at most 1000 nM. As for `O=S(=O)(c1c(Cl)nc2sccn12)N1CC(Nc2ccc(F)c(F)c2)C(c2ccccc2)C1` (stereo not shown) [Example 520, 1-[(6-chloroimidazo[2,1-b][1,3]thiazol-5-yl)sulfonyl]-N-(3,4-difluorophenyl)-4-phenylpyrrolidin-3-amine], the figure is at most 10000 nM; as for `Cn1cnc(S(=O)(=O)N2C[C@@H](NC(=O)c3ccc(C(F)(F)F)cc3)[C@H](c3ccc(F)cc3)C2)c1` (relative stereo) [Example 64, N-{trans-4-(4-fluorophenyl)-1-[(1-methyl-1H-imidazol-4-yl)sulfonyl]pyrrolidin-3-yl}-4-(trifluoromethyl)benzamide], at most 100 nM. On to `COc1ccc(S(=O)(=O)N2C[C@@H](NC(=O)c3cccc(C(F)(F)F)c3Cl)[C@H](c3ccccc3)C2)cc1` (relative stereo) [Example 136, 2-chloro-N-{trans-1-[(4-methoxyphenyl)sulfonyl]-4-phenylpyrrolidin-3-yl}-3-(trifluoromethyl)benzamide], for which the inhibitory constant (Ki) is at most 10000 nM. Under `Cn1cnc(S(=O)(=O)N2C[C@H](NC(=O)c3cnc(Cl)cn3)[C@@H](c3ccccc3)C2)c1` [Example 415, 5-chloro-N-{(3R,4S)-1-[(1-methyl-1H-imidazol-4-yl)sulfonyl]-4-phenylpyrrolidin-3-yl}pyrazine-2-carboxamide] stands at most 10000 nM.

For the compound `Cn1cnc(S(=O)(=O)N2C[C@@H](Nc3cccc(F)c3)[C@H](c3cccc(F)c3)C2)c1` (relative stereo) [Example 186, trans-N,4-bis(3-fluorophenyl)-1-[(1-methyl-1H-imidazol-4-yl)sulfonyl]pyrrolidin-3-amine], the inhibition constant (Ki) was at most 1000 nM. As for `Cn1cnc(S(=O)(=O)N2C[C@@H](NC(=O)c3cccc(Cl)c3)[C@H](c3ccccc3)C2)c1` (relative stereo) [Example 15, 3-chloro-N-{trans-1-[(1-methyl-1H-imidazol-4-yl)sulfonyl]-4-phenylpyrrolidin-3-yl}benzamide], the figure is at most 10000 nM; as for `Cc1cccc(OC[C@@H]2CN(S(=O)(=O)c3cn(C)cn3)C[C@H]2c2ccc(F)cc2)c1` (relative stereo) [Example 296, 4-({trans-3-(4-fluorophenyl)-4-[(3-methylphenoxy)methyl]pyrrolidin-1-yl}sulfonyl)-1-methyl-1H-imidazole], at most 100 nM; as for `Cn1cnc(S(=O)(=O)N2C[C@H](Nc3ccc4occc4c3)[C@@H](c3ccccc3)C2)c1` [Example 660, (3R,4S)-N-(1-benzofuran-5-yl)-1-[(1-methyl-1H-imidazol-4-yl)sulfonyl]-4-phenylpyrrolidin-3-amine], at most 1000 nM. Regarding `Cn1cnc(S(=O)(=O)N2C[C@@H](COc3ccccc3)[C@H](c3ccc(F)cc3)C2)c1` (relative stereo) [Example 245, 4-{[trans-3-(4-fluorophenyl)-4-(phenoxymethyl)pyrrolidin-1-yl]sulfonyl}-1-methyl-1H-imidazole], the inhibitory constant (Ki) was at most 100 nM. As for `CCCCC(F)(F)CN[C@H]1CN(S(=O)(=O)c2cn(C)cn2)C[C@@H]1c1ccc(F)cc1` [Example 733, (3R,4S)-N-(2,2-difluorohexyl)-4-(4-fluorophenyl)-1-[(1-methyl-1H-imidazol-4-yl)sulfonyl]pyrrolidin-3-amine], the figure is at most 10 nM; as for `Cn1cnc(S(=O)(=O)N2C[C@H](NCc3cc(Cl)ccc3OC(F)F)[C@@H](c3ccccc3)C2)c1` [Example 569, (3R,4S)-N-[5-chloro-2-(difluoromethoxy)benzyl]-1-[(1-methyl-1H-imidazol-4-yl)sulfonyl]-4-phenylpyrrolidin-3-amine], at most 1000 nM. As for `O=c1[nH]c2ccc(S(=O)(=O)N3CC(Nc4ccc(F)c(F)c4)C(c4ccccc4)C3)cc2[nH]1` (stereo not shown) [Example 506, 5-({3-[(3,4-difluorophenyl)amino]-4-phenylpyrrolidin-1-yl}sulfonyl)-1,3-dihydro-2H-benzimidazol-2-one], the figure is at most 10000 nM; as for `Cn1cnc(S(=O)(=O)N2C[C@@H](Nc3ccc(F)c(OC(F)(F)F)c3)[C@H](C3CCCCO3)C2)c1` (stereo partly drawn) [Example 741, (3S,4R)-N-[4-fluoro-3-(trifluoromethoxy)phenyl]-1-[(1-methyl-1H-imidazol-4-yl)sulfonyl]-4-(tetrahydro-2H-pyran-2-yl)pyrrolidin-3-amine], at most 100 nM; as for `Cn1cnc(S(=O)(=O)N2C[C@H](Nc3cc(-c4ccccc4F)ncn3)[C@@H](c3ccc(F)cc3)C2)c1` [Example 726, 6-(2-fluorophenyl)-N-{(3R,4S)-4-(4-fluorophenyl)-1-[(1-methyl-1H-imidazol-4-yl)sulfonyl]pyrrolidin-3-yl}pyrimidin-4-amine], at most 100 nM. As for `Cn1cnc(S(=O)(=O)N2C[C@@H](Nc3ccccc3Cl)[C@H](c3ccc(F)cc3)C2)c1` (relative stereo) [Example 93, trans-N-(2-chlorophenyl)-4-(4-fluorophenyl)-1-[(1-methyl-1H-imidazol-4-yl)sulfonyl]pyrrolidin-3-amine], the figure is at most 1000 nM.

Turning to `COc1ccc(S(=O)(=O)N2C[C@@H](NC(=O)c3cc(Cl)cc(Cl)c3)[C@H](c3ccccc3)C2)cc1` (relative stereo) [Example 135], the Ki is over 10000 nM. As for `CCCCC(O)C(=O)N[C@H]1CN(S(=O)(=O)c2cn(C)cn2)C[C@@H]1c1ccc(F)cc1` (stereo partly drawn) [Example 673, N-{(3R,4S)-4-(4-fluorophenyl)-1-[(1-methyl-1H-imidazol-4-yl)sulfonyl]pyrrolidin-3-yl}-2-hydroxyhexanamide], the figure is at most 1000 nM; as for `Cn1cnc(S(=O)(=O)N2C[C@@H](C(=O)NCc3ccc(F)c(F)c3)[C@H](c3ccc(F)cc3)C2)c1` (relative stereo) [Example 631, Trans-N-(3,4-difluorobenzyl)-4-(4-fluorophenyl)-1-[(1-methyl-1H-imidazol-4-yl)sulfonyl]pyrrolidine-3-carboxamide], at most 10 nM.
